In patent US11059832B2, “HPK1 inhibitors and methods of using same” (University Health Network, priority 2015, dated 2021):

What was measured:
Format in all cases: biochemical
FLT3 = target: T1, FLT3 (Homo sapiens, UniProt P36888); test: FLT3 inhibition, FRET based Z'-LYTE Kinase Assay; conditions: 1 nM FLT3, 940 μM ATP; read-out: IC50 Range Flt3
T1 construct: purchased Invitrogen PV3182
T1 sequence (P36888 27-993): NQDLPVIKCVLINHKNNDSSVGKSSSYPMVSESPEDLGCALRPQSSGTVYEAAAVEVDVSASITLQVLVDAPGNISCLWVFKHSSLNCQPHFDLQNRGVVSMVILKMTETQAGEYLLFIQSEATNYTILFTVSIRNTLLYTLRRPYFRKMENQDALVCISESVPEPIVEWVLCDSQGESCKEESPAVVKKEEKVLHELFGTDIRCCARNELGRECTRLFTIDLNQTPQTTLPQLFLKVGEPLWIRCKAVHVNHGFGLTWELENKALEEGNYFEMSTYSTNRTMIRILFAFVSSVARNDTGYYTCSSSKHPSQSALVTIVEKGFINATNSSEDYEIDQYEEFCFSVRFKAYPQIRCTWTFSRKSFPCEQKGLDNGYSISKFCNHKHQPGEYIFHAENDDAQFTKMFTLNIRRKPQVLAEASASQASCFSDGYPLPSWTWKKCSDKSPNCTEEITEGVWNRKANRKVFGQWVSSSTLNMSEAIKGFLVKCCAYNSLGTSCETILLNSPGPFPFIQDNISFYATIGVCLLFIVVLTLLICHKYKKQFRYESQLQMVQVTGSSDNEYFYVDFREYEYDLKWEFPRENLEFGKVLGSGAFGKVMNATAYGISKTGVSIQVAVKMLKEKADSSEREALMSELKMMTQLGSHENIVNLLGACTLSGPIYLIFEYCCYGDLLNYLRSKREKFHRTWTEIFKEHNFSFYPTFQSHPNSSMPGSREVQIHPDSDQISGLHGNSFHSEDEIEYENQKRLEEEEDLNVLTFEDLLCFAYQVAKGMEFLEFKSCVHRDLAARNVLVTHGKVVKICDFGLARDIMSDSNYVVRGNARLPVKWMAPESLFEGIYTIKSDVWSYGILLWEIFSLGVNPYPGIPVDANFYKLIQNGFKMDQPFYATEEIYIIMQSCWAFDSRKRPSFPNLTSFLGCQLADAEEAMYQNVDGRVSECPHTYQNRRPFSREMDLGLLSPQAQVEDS
Protocol: (§1) FLT3 and LCK compound inhibition were determined using FRET based Z′-LYTE Kinase Assay Kit with Tyrosine 2 peptide as the substrate (Invitrogen cat #PV3191). […] The % inhibition values were determined according to the manufacturer's directions and IC50 values were obtained using a non-linear 4 point logistic curve fit (XLfit4, IDBS).

human HPK1 (MAP4K1) = target: T2, human HPK1 (MAP4K1) (Homo sapiens, UniProt Q92918); test: HPK1 inhibition assay (indirect ELISA); conditions: GST-HPK1 0.6 nM, 12 μM ATP; read-out: IC50 Range HPK1
T2 construct: human HPK1 (aa 1-346); purchased Invitrogen PV6355
T2 sequence (Q92918 1-346): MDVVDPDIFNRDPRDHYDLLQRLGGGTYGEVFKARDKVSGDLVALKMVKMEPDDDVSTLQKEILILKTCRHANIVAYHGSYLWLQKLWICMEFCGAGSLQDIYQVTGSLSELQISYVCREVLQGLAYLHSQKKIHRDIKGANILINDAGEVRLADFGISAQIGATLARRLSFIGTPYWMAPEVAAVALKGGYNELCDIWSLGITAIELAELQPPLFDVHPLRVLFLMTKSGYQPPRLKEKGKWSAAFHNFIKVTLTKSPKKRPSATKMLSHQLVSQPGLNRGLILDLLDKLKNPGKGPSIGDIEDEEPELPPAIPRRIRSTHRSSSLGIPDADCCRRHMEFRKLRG
Protocol: Active HPK1 (MAP4K1) was purchased as an N-terminal GST fusion of human HPK1 (aa 1-346) from Invitrogen (cat #PV6355). HPK1 activity was measured using an indirect ELISA detection system. GST-HPK1 (0.6 nM) was incubated in the presence of 12 μM ATP (Sigma cat #A7699), 5 mM MOPS (pH 7.2), 2.5 mM β-glycerol-phosphate, 5 mM MgCl2, 0.4 mM EDTA, 1 mM EGTA, 0.05 mM DTT, in a 96 well microtitre plate pre-coated with 0.5 μg/well bovine myelin basic protein (MBP) (Millipore, cat #13-110). The reaction was allowed to proceed for 30 min, followed by 5 washes of the plate with Wash Buffer (phosphate buffered saline supplemented with 0.2% Tween 20), and incubation for 30 min with a 1:3000 dilution of anti-phospho-threonine rabbit polyclonal antibody (Cell Signaling cat #9381). The plate was washed 5 times with wash buffer, incubated for 30 min in the presence of goat anti-rabbit horse radish peroxidase conjugate (BioRad cat #1721019, 1:3000 concentration), washed an additional 5 times with wash buffer, and incubated in the presence of TMB substrate (Sigma cat #T0440). The colorimetric reaction was allowed to continue for 5 min, followed by addition of stop solution (0.5 N H2SO4), and quantified by detection at 450 nm with a monochromatic plate reader (Molecular Devices M5).
Compound inhibition was determined at either a fixed concentration (10 μM) or at a variable inhibitor concentration (typically 50 μM to 0.1 μM in a 10 point dose response titration). Compounds were pre-incubated in the presence of enzyme for 15 min prior to addition of ATP and the activity remaining quantified using the above described activity assay. The % inhibition of a compound was determined using the following formula; % inhibition=100×(1−(experimental value−background value)/(high activity control−background value)). The IC50 value was determined using a non-linear 4 point logistic curve fit (XLfit4, IDBS) with the formula; (A+(B/(1+((x/C)^D)))), where A=background value, B=range, C=inflection point, D=curve fit parameter.

LCK = target: T3, LCK (Homo sapiens, UniProt P06239); test: LCK inhibition, FRET based Z'-LYTE Kinase Assay; conditions: 25 nM LCK, 180 μM ATP; read-out: IC50 Range Lck
T3 construct: purchased Invitrogen P3043
T3 sequence (P06239 whole entry, species assumed): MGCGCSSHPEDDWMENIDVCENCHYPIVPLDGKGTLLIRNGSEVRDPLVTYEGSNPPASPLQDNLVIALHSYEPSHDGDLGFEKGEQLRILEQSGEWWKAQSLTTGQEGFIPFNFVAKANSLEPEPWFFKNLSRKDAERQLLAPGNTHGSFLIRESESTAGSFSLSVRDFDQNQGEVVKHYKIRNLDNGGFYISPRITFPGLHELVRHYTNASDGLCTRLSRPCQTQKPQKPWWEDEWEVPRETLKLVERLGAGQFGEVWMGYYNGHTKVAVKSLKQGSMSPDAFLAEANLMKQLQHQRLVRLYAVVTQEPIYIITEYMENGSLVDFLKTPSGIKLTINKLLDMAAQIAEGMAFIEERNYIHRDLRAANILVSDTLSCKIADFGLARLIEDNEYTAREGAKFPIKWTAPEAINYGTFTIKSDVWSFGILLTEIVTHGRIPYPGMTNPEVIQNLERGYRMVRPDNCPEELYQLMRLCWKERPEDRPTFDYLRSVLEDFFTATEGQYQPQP
Protocol: as §1

Row | Compound | IC50 (FLT3) | IC50 (human HPK1 (MAP4K1)) | IC50 (LCK)
1 | CN1CCN(c2ccc3nc(-c4c(N[C@@H]5CCCC[C@@H]5O)c5sccc5[nH]c4=O)[nH]c3c2)CC1 [Example A46, 7-(((1R,2S)-2-hydroxycyclohexyl)amino)-6-(6-(4-methylpiperazin-1-yl)-1H-benzo[d]imidazol-2-yl)thieno[3,2-b]pyridin-5(4H)-one] | ≤ 0.05 µM | ≤ 0.05 µM | 0.05 to 0.5 µM
2 | C[C@@H]1CN(c2ccc3nc(-c4c(NC5CCOCC5)c5sccc5[nH]c4=O)[nH]c3c2)C[C@H](C)N1C [Example A48, 7-((tetrahydro-2H-pyran-4-yl)amino)-6-(6-(3r,5s)-rel-3,4,5-trimethylpiperazin-1-yl)-1H-benzo[d]imidazol-2-yl)thieno[3,2-b]pyridin-5(4H)-one] | ≤ 0.05 µM | ≤ 0.05 µM | ≤ 0.05 µM
3 | CN1CCN(c2ccc3nc(-c4c(NCc5cccnc5)c5sccc5[nH]c4=O)[nH]c3c2)CC1 [Example A52, 6-(6-(4-methylpiperazin-1-yl)-1H-benzo[d]imidazol-2-yl)-7-((pyridin-3-ylmethyl)amino)thieno[3,2-b]pyridin-5(4H)-one] | ≤ 0.05 µM | ≤ 0.05 µM | ≤ 0.05 µM
4 | CN1CCN(c2ccc3nc(-c4c(NCc5ccccn5)c5sccc5[nH]c4=O)[nH]c3c2)CC1 [Example A53, 6-(6-(4-methylpiperazin-1-yl)-1H-benzo[d]imidazol-2-yl)-7-((pyridin-2-ylmethyl)amino)-thieno[3,2-b]pyridin-5(4H)-one] | ≤ 0.05 µM | ≤ 0.05 µM | ≤ 0.05 µM
5 | CN1CCN(c2ccc3nc(-c4c(N[C@H]5CCNC[C@@H]5F)c5ccsc5[nH]c4=O)[nH]c3c2)CC1 [Example A54, 4-(((3S,4S)-3-fluoropiperidin-4-yl)amino)-5-(6-(4-methylpiperazin-1-yl)-1H-benzo[d]imidazol-2-yl)thieno[2,3-b]pyridin-6(7H)-one] | ≤ 0.05 µM | ≤ 0.05 µM | 0.05 to 0.5 µM
6 | Cc1cc2[nH]c(-c3c(N)c4ccsc4[nH]c3=O)nc2cc1N1CCN(C)CC1 [Example A61, 4-amino-5-(6-methyl-5-(4-methylpiperazin-1-yl)-1H-benzo[d]imidazol-2-yl)thieno[2,3-b]pyridin-6(7H)-one] | ≤ 0.05 µM | ≤ 0.05 µM | 0.05 to 0.5 µM
7 | Nc1c(-c2nc3ccc(N4CCNCC4)cc3[nH]2)c(=O)[nH]c2sccc12 [Example A64, 4-amino-5-(6-(piperazin-1-yl)-1H-benzo[d]imidazol-2-yl)thieno[2,3-b]pyridin-6(7H)-one] | ≤ 0.05 µM | ≤ 0.05 µM | 0.05 to 0.5 µM
8 | Nc1c(-c2nc3ccc(N4CCN(C5COC5)CC4)cc3[nH]2)c(=O)[nH]c2sccc12 [Example A65, 4-amino-5-(6-(4-(oxetan-3-yl)piperazin-1-yl)-1H-benzo[d]imidazol-2-yl)thieno[2,3-b]pyridin-6(7H)-one] | ≤ 0.05 µM | ≤ 0.05 µM | 0.05 to 0.5 µM

Other lines, results leading:

Row | IC50 (FLT3) | IC50 (human HPK1 (MAP4K1)) | IC50 (LCK) | Compound
9 | ≤ 0.05 µM | ≤ 0.05 µM | 0.05 to 0.5 µM | C[C@@H]1CN(c2ccc3nc(-c4c(N)c5sccc5[nH]c4=O)[nH]c3c2)C[C@H](C)N1C [Example A33, 7-amino-6-(6-(3r,5s)-rel-3,4,5-trimethylpiperazin-1-yl)-1H-benzo[d]imidazol-2-yl)thieno[3,2-b]pyridin-5(4H)-one]
10 | ≤ 0.05 µM | ≤ 0.05 µM | ≤ 0.05 µM | CN1CCN(c2ccc3nc(-c4c(NC5CCOCC5)c5sccc5[nH]c4=O)[nH]c3c2)CC1 [Example A35, 6-(6-(4-methylpiperazin-1-yl)-1H-benzo[d]imidazol-2-yl)-7-((tetrahydro-2H-pyran-4-yl)amino)thieno[3,2-b]pyridin-5(4H)-one]
11 | ≤ 0.05 µM | ≤ 0.05 µM | ≤ 0.05 µM | CN1CCN(c2ccc3nc(-c4c(NCC5CCOCC5)c5sccc5[nH]c4=O)[nH]c3c2)CC1 [Example A38, 6-(6-(4-methylpiperazin-1-yl)-1H-benzo[d]imidazol-2-yl)-7-(((tetrahydro-2H-pyran-4-yl)methyl)amino)thieno[3,2-b]pyridin-5(4H)-one]
12 | ≤ 0.05 µM | ≤ 0.05 µM | ≤ 0.05 µM | CN1CCN(c2ccc3nc(-c4c(NC5CCNCC5)c5sccc5[nH]c4=O)[nH]c3c2)CC1 [Example A39, 6-(6-(4-methylpiperazin-1-yl)-1H-benzo[d]imidazol-2-yl)-7-(piperidin-4-ylamino)thieno[3,2-b]pyridin-5(4H)-one]
13 | ≤ 0.05 µM | ≤ 0.05 µM | ≤ 0.05 µM | CN1CCN(c2ccc3nc(-c4c(N[C@H]5CC[C@@H](O)CC5)c5sccc5[nH]c4=O)[nH]c3c2)CC1 [Example A40, 7-(((1S,4S)-4-hydroxycyclohexyl)amino)-6-(6-(4-methylpiperazin-1-yl)-1H-benzo[d]imidazol-2-yl)thieno-[3,2-b]pyridin-5(4H)-one]
14 | ≤ 0.05 µM | ≤ 0.05 µM | ≤ 0.05 µM | CN1CCN(c2ccc3nc(-c4c(N[C@H]5CCCC[C@@H]5O)c5sccc5[nH]c4=O)[nH]c3c2)CC1 [Example A41, 7-(((1S,2S)-2-hydroxycyclohexyl)amino)-6-(6-(4-methylpiperazin-1-yl)-1H-benzo[d]imidazol-2-yl)thieno[3,2-b]pyridin-5(4H)-one]
15 | ≤ 0.05 µM | ≤ 0.05 µM | ≤ 0.05 µM | CN1CCN(c2ccc3nc(-c4c(N[C@H]5CCC[C@@H]5O)c5sccc5[nH]c4=O)[nH]c3c2)CC1 [Example A42, 7-(((1S,2S)-2-hydroxycyclopentyl)amino)-6-(6-(4-methylpiperazin-1-yl)-1H-benzo[d]imidazol-2-yl)thieno[3,2-b]pyridin-5(4H)-one]
16 | ≤ 0.05 µM | ≤ 0.05 µM | ≤ 0.05 µM | CN1CCN(c2ccc3nc(-c4c(N[C@H]5CCCC[C@H]5O)c5sccc5[nH]c4=O)[nH]c3c2)CC1 [Example A44, 7-(((1S,2R)-2-hydroxycyclohexyl)amino)-6-(6-(4-methylpiperazin-1-yl)-1H-benzo[d]imidazol-2-yl)thieno[3,2-b]pyridin-5(4H)-one]
17 | ≤ 0.05 µM | ≤ 0.05 µM | ≤ 0.05 µM | CN1CCC(Nc2c(-c3nc4ccc(N5CCOCC5)cc4[nH]3)c(=O)[nH]c3ccsc23)CC1 [Example A45, 7((1-methylpiperidin-4-yl)amino)-6-(6-morpholino-1H-benzo[d]imidazol-2-yl)thieno[3,2-b]pyridin-5(4H)-one]
